Laboratory results taken from article PMC10449632, “Structural basis for translation inhibition by the glycosylated drosocin peptide” (Nature Chemical Biology, 2023).
No end group written: not given here. *: point of attachment. β‑D‑cellobiosyl = OC[C@H]1O[C@@H](O[C@H]2[C@H](O)[C@@H](O)[C@H](*)O[C@@H]2CO)[C@H](O)[C@@H](O)[C@@H]1O; β‑D‑lactosyl = OC[C@H]1O[C@@H](O[C@H]2[C@H](O)[C@@H](O)[C@H](*)O[C@@H]2CO)[C@H](O)[C@@H](O)[C@H]1O; β‑D‑maltosyl = OC[C@H]1O[C@H](O[C@H]2[C@H](O)[C@@H](O)[C@H](*)O[C@@H]2CO)[C@H](O)[C@@H](O)[C@@H]1O; α‑D‑GlcNAc = CC(=O)N[C@@H]1[C@@H](O)[C@H](O)[C@@H](CO)O[C@@H]1*; βGlc = OC[C@H]1O[C@@H](*)[C@H](O)[C@@H](O)[C@@H]1O; βGal = OC[C@H]1O[C@@H](*)[C@H](O)[C@@H](O)[C@H]1O

Key:
[1] = test system: E. coli Keio wt (BW25113); experiment: Antibiotic susceptibility (growth) assay, E. coli Keio wild-type; type: cell-based, Escherichia coli; settings: 30 μM peptide; for Average of normalized growth: average of three biological replicates; for growth inhibition in rich medium: rich (LB) medium
Text: (§1) Many PrAMPs use the SbmA transporter to pass through the E. coli inner membrane[4],[10],[31]; however, whether drosocin also uses SbmA remains, to our knowledge, unknown. To address this, we monitored the effect of the presence of diverse drosocin peptides (Fig. 1a,b and Supplementary Fig. 1a) on the growth of the wild-type E. coli strain BW25113 containing SbmA or lacking SbmA (ΔsbmA) (Fig. 1c,d). We compared unmodified drosocin (Dro) with various modified forms (Fig. 1a,b). The modified forms included the naturally occurring Dro1 and Dro2 that carry either a monosaccharide (α-D-GalNAc) or disaccharide (β-D-Gal(1→3)-α-D-GalNAc) attached to Thr11, respectively (Fig. 1b). In addition, we examined the previously reported[23],[24] drosocin derivatives bearing β-D-Maltosyl (Dro3), α-D-GlcNAc (Dro4), β-D-Gal (Dro5), β-D-Glc (Dro6), β-D-Lactosyl (Dro7) and β-D-Cellobiosyl (Dro8) modifications on Thr11 (Fig. 1a,b and Supplementary Fig. 1a). Finally, we also included in our analysis the synthetic unmodified drosocin derivative with proline substitutions at positions 7, 11 and 12 (Dro-3P) (Fig. 1a), which was previously reported to have similar antimicrobial activity to the monosaccharide form of drosocin[25]. Growth was monitored in both rich (LB) and minimal medium in the presence of 30 μM of each peptide and normalized with the growth in the absence of the compounds (Methods). […] We also observed no inhibition for Dro2 nor for any of the β-linked disaccharides (Dro3, Dro6 or Dro7). […] By contrast, all drosocin peptides inhibited growth of the E. coli BW25113 strain in minimal medium, albeit to different extents (Fig. 1d).
(§2) Strains E. coli Keio wild-type and E. coli Keio ΔsbmA used from the Keio knockout collection (Horizon, https://horizondiscovery.com). Wild-type E. coli SQ110 (ΔrrnGADBHC(ptRNA67))[47] and SQ171 (ΔrrnGADEHBC(pKK3535, ptRNA67))[47] strains and related mutants E. coli SQ110 A2059G and E. coli SQ171 A2503G were obtained from the previous Api137 study. E. coli strains SQ171 bearing A752G, U2609C and A752G:U2609C mutations[43] and E. coli SQ171 U2609G[48] were generated previously.
(§3) The susceptibility of E. coli strains to compounds was evaluated by monitoring the bacterial growth in presence of increasing concentrations of the compound of interest. In brief, bacteria were inoculated in a total volume of 100 μl of medium contained in a well of a 96-well microplate (round bottom, with cap, sterile; Sarstedt). The medium used was either LB, as rich medium, or ATCC medium (778 Davis and Mingioli glucose minimal medium), as minimal medium. Before inoculation, bacteria were grown up to exponential phase and then inoculated into the culture mix, containing selective antibiotic if necessary, with an initial optical density at 600 nm (OD600) of 0.05. Values measured from wells containing just the medium were used as a blank. The growth in each well was monitored by measuring the OD600 every 10 minutes for a total of 20 hours at 37 °C with shaking using a plate reader (Tecan Infinite 200 PRO). The inhibition resulting from a compound’s concentration was evaluated by normalizing the OD600 at t = 12 hours (corresponding to the end of the log phase) from the treated culture to the untreated one. For each compound, the concentrations tested were 5 μM, 10 μM and 30 μM. Each single titration assay was done in triplicate with individually prepared culture mixes. For each concentration, the standard deviation was calculated, taking into account each single replica and its specific technical error from the plate reader.

[2] = test system: E. coli Keio ∆sbmA (BW25113 ΔsbmA); experiment: Antibiotic susceptibility (growth) assay, E. coli Keio ΔsbmA; type: cell-based, Escherichia coli; settings: 30 μM peptide, average of three biological replicates
Text: as §1, §2, §3

[3] = test system: ribosomes at the stop codon of MLIF-UAA mRNA in the presence of RF1; experiment: Toeprinting assay on MLIF*-mRNA with RF1; type: biochemical, Escherichia coli; settings: for Relative stop band intensity signal: 30 μM compound, MLIF*-mRNA, plotted values
Procedure: (§4) To ascertain which step during protein synthesis is affected by drosocin, we performed toeprinting assays, where reverse transcription is used to monitor the position of ribosomes on a defined mRNA[34].
(§5) Toeprinting reactions were performed as described previously. In brief, reactions were performed with 6 μl of PURExpress ΔRF123 in vitro protein synthesis system (NEB) in the presence of 1× RF3 and either 1× or 10× of RF1 or RF2 (relative to the manufacturer’s recommendation). The reactions were carried out on an MLIF-UAA-toeprint template (5′-[…]-3′, ORF start codon and stop codon are underlined bold), containing T7 promoter, a ribosome binding site, an MLIF-coding ORF and the NV1* primer binding site. The template is a version of the ErmBL template with a truncated ORF and addition of a isoleucine coding codon at the third position in the ORF. The template was generated by polymerase chain reaction of two overlapping 77-nt- and 78-nt-long primers. The reactions contained 30 ng of the MLIF-UAA-toeprint DNA template. The reactions were supplemented with Api137, thiostrepton or one of the drosocin derivates as specified. The transcription–translation reactions were incubated for 15 minutes at 37 °C. The reverse transcription on the MLIF-short-UAA toeprint template was carried out using AMV RT and primer NV*1-Alexa 647 (5′-[…]-3′). The transcription–translation reactions were incubated with AMV RT and NV*1-Alexa 647 for 20 minutes at 37 °C. mRNA degradation was carried out by the addition of 1 µl of 5 M NaOH. The reactions were neutralized with 0.7 µl of 25% HCl, and nucleotide removal was performed with the QIAquick Nucleotide Removal Kit (Qiagen). The samples were dried under vacuum for 2 hours at 60 °C for subsequent gel electrophoresis. The 6% acrylamide gels were scanned on a Typhoon scanner (GE Healthcare).

[4] = test system: ribosomes at the stop codon of MLIF-UAA mRNA in the presence of RF2; experiment: Toeprinting assay on MLIF*-mRNA with RF2; type: biochemical, Escherichia coli; settings: Fig 1h, RF2 (10X), 30 μM compound, plotted values
Procedure: as §4, §5

[5] = test system: in vitro translation, E. coli PURExpress system, firefly luciferase (Fluc) mRNA; experiment: In vitro translation assay with Fluc reporter; type: biochemical, Escherichia coli
Procedure: To investigate this, we compared the effect of increasing concentrations (0–150 μM) of modified Dro1 and Dro2 with unmodified Dro, Dro-3P and Api137 using a cell-free in vitro translation system and firefly luciferase (Fluc) mRNA as a template (Fig. 1e), as we have used previously for assessing the activity of other PrAMPs[4],[6],[8],[9],[32],[33].
The in vitro translation assay was carried out as described previously[4],[8] using the E. coli PURExpress system (New England Biolabs (NEB), E6800S). Then, 1 µl of antibiotic solution was added to 5 µl of PURExpress reaction mix. Each reaction contained 10 ng μl^−1 of mRNA encoding the Fluc, which was in vitro transcribed from a pIVEX-2.3MCS vector containing the Fluc gene using T7 polymerase (Thermo Fisher Scientific). The reaction mix was incubated for 30 minutes at 32 °C while shaking (600 r.p.m.). Reactions were stopped with 5 µl of kanamycin (50 mg ml^−1) and transferred into a 96-well microplate (Greiner Lumitrac, non-binding, white, chimney). Next, 40 µl of luciferase assay substrate solution (Promega, E1501) was added, and luminescence was measured using a plate reader (Tecan Infinite 200 PRO). Nuclease-free water was added instead of antibiotic as control. Absolute luminescence values were normalized using reactions without antibiotic. All assays were done as triplicates with individually prepared reaction mix.

Row | Substance | Average of normalized growth ([1]; LB rich medium) [%] | Average of normalized growth ([1]; Minimal medium) [%] | growth inhibition in rich medium [1] | Average of normalized growth ([2]; LB rich medium) [%] | Average of normalized growth ([2]; Minimal medium) [%] | Relative stop band intensity signal ([3]; Fig 1f, RF1 (1X)) | Relative stop band intensity signal ([3]; Fig 1g, RF1 (10X)) | stalling of ribosomes at the stop codon ([3]; toeprinting, 30 μM peptide, 1× or 10× RF1 (trend also with ten-fold RF2)) | Relative stop band intensity signal [4] | activity in in vitro translation assays ([5]; Fluc reporter, increasing concentrations of peptide) | maximum inhibition of in vitro translation ([5]; at the highest concentration tested of 150 μM, Fluc mRNA, luminescence) [%]
1 | Dro4: drosocin derivative bearing α-D-GlcNAc on Thr11 (GKPRPYSPRPT(α‑D‑GlcNAc)SHPRPIRV; UniProt P36193 22-40, looked up) | 60 | 38 | growth inhibition | 97 | 103 | 0.3375 | 0.6077 | to a lesser extent | 0.166 | – | –
2 | Dro7: drosocin derivative bearing β-D-Lactosyl on Thr11 (GKPRPYSPRPT(β‑D‑lactosyl)SHPRPIRV; UniProt P36193 22-40, looked up) | 97 | 50 | no inhibition | 101 | 109 | 0.1333 | 0.3035 | – | 0.0472 | – | –
3 | Dro5: drosocin derivative bearing β-D-Gal on Thr11 (GKPRPYSPRPT(βGal)SHPRPIRV; UniProt P36193 22-40, looked up) | 93 | 24 | no inhibition | 100 | 107 | 0.2051 | 0.5557 | – | 0.04941 | – | –
4 | Dro-R18A (GKPRPYSPRPTSHPRPIAV; ends and bridges not checked; UniProt P36193 22-40, looked up, variant R18A) | – | – | – | – | – | – | – | – | – | complete loss of activity | –
5 | Dro3: drosocin derivative bearing β-D-Maltosyl on Thr11 (GKPRPYSPRPT(β‑D‑maltosyl)SHPRPIRV; UniProt P36193 22-40, looked up) | 97 | 41 | no inhibition | 97 | 105 | 0.2727 | 0.5086 | – | 0.02902 | – | –
6 | Dro6: drosocin derivative bearing β-D-Glc on Thr11 (GKPRPYSPRPT(βGlc)SHPRPIRV; UniProt P36193 22-40, looked up) | 94 | 72 | no inhibition | 99 | 106 | 0.04582 | 0.4077 | – | 0.01282 | – | –
7 | Dro2: naturally occurring drosocin carrying disaccharide β-D-Gal(1→3)-α-D-GalNAc attached to Thr11 (GKPRPYSPRPTSHPRPIRV; not fully specified (residue 11); UniProt P36193 22-40, looked up) | 92 | 25 | no inhibition | 96 | 101 | 0.3007 | 0.625 | – | 0.06699 | – | 40
8 | Dro8: drosocin derivative bearing β-D-Cellobiosyl on Thr11 (GKPRPYSPRPT(β‑D‑cellobiosyl)SHPRPIRV; UniProt P36193 22-40, looked up) | 97 | 85 | – | 102 | 112 | 0.1518 | 0.3011 | – | 0.03669 | – | –
